Experimental data from ChEMBL document CHEMBL1201862, “PubChem BioAssay data set” (2004).
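Compound exposure: 48 hours, 5 concentrations, 96-well plates. GI50 is the concentration that inhibits growth by half.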 Active and inactive are the calls of the source. No stated cut-off is given here; in the data, active = GI50 up to about 1.1 µM and inactive = higher.

Tests used:
Experiment in all cases: NCI anticancer screen, dose series, 48 h
[1] = system: 786-0
[2] = system: A498
[3] = system: A549
[4] = system: ACHN
[5] = system: CAKI-1
[6] = system: CCRF-CEM
[7] = system: COLO 205
[8] = system: DLD-1
[9] = system: DMS-114
[10] = system: DMS-273
[11] = system: EKVX
[12] = system: HCT-116
[13] = system: HCT-15
[14] = system: HL-60
[15] = system: HOP-18
[16] = system: HOP-62
[17] = system: HOP-92
[18] = system: HT-29
[19] = system: IGROV-1
[20] = system: K562
[21] = system: KM-20L2
[22] = system: KM12
[23] = system: LOX IMVI
[24] = system: LXFL 529
[25] = system: M14
[26] = system: M19-MEL
[27] = system: MOLT-4
[28] = system: Malme-3M
[29] = system: NCI-H226
[30] = system: NCI-H23
[31] = system: NCI-H460
[32] = system: NCI-H522
[33] = system: OVCAR-3
[34] = system: OVCAR-4
[35] = system: OVCAR-5
[36] = system: OVCAR-8
[37] = system: RPMI-8226
[38] = system: RXF 393
[39] = system: RXF 631
[40] = system: SF-268
[41] = system: SF-295
[42] = system: SF-539
[43] = system: SK-MEL-28
[44] = system: SK-MEL-2
[45] = system: SK-MEL-5
[46] = system: SK-OV-3
[47] = system: SN12C
[48] = system: SNB-19
[49] = system: SNB-75
[50] = system: SNB-78
[51] = system: SR
[52] = system: SW-620
[53] = system: TK-10
[54] = system: U-251
[55] = system: UACC-257
[56] = system: UACC-62
[57] = system: UO-31
[58] = system: XF498
[59] = system: HCC 2998

Compound: COc1ccc(/N=C/c2ccc(N(CCC#N)S(=O)(=O)c3ccccc3)cc2)cc1
- GI50 [1]: > 100 µM (inactive)
- GI50 [2]: > 100 µM (inactive)
- GI50 [3]: > 100 µM (inactive)
- GI50 [4]: > 100 µM (inactive)
- GI50 [5]: > 100 µM (inactive)
- GI50 [6]: > 100 µM (inactive)
- GI50 [7]: > 100 µM (inactive)
- GI50 [8]: > 100 µM (inactive)
- GI50 [9]: > 100 µM (inactive)
- GI50 [10]: > 100 µM (inactive)
- GI50 [11]: > 100 µM (inactive)
- GI50 [12]: > 100 µM (inactive)
- GI50 [13]: > 100 µM
- GI50 [14]: > 100 µM (inactive)
- GI50 [15]: > 100 µM (inactive)
- GI50 [16]: > 100 µM (inactive)
- GI50 [17]: > 100 µM (inactive)
- GI50 [18]: > 100 µM (inactive)
- GI50 [19]: > 100 µM (inactive)
- GI50 [20]: 68.1 µM (inactive)
- GI50 [21]: > 100 µM (inactive)
- GI50 [22]: > 100 µM (inactive)
- GI50 [23]: > 100 µM (inactive)
- GI50 [24]: > 100 µM (inactive)
- GI50 [25]: > 100 µM (inactive)
- GI50 [26]: > 100 µM (inactive)
- GI50 [27]: > 100 µM (inactive)
- GI50 [28]: > 100 µM (inactive)
- GI50 [29]: > 100 µM (inactive)
- GI50 [30]: > 100 µM (inactive)
- GI50 [31]: > 100 µM (inactive)
- GI50 [32]: > 100 µM (inactive)
- GI50 [33]: > 100 µM (inactive)
- GI50 [34]: > 100 µM (inactive)
- GI50 [35]: > 100 µM (inactive)
- GI50 [36]: > 100 µM (inactive)
- GI50 [37]: > 100 µM (inactive)
- GI50 [38]: > 100 µM (inactive)
- GI50 [39]: > 100 µM (inactive)
- GI50 [40]: > 100 µM (inactive)
- GI50 [41]: > 100 µM (inactive)
- GI50 [42]: > 100 µM (inactive)
- GI50 [43]: > 100 µM (inactive)
- GI50 [44]: > 100 µM (inactive)
- GI50 [45]: > 100 µM (inactive)
- GI50 [46]: > 100 µM (inactive)
- GI50 [47]: > 100 µM (inactive)
- GI50 [48]: > 100 µM (inactive)
- GI50 [49]: > 100 µM (inactive)
- GI50 [50]: > 100 µM (inactive)
- GI50 [51]: > 100 µM (inactive)
- GI50 [52]: > 100 µM (inactive)
- GI50 [53]: > 100 µM (inactive)
- GI50 [54]: > 100 µM (inactive)
- GI50 [55]: > 100 µM (inactive)
- GI50 [56]: > 100 µM (inactive)
- GI50 [57]: > 100 µM (inactive)
- GI50 [58]: > 100 µM (inactive)

Compound: CCCCOC(=O)NC(=O)c1cn(CCCOC(=O)NCCCCCCNC(=O)OCCCn2cc(C(=O)NC(=O)OCCCC)c(=O)[nH]c2=O)c(=O)[nH]c1=O
- GI50 [1]: > 100 µM (inactive)
- GI50 [2]: > 100 µM (inactive)
- GI50 [3]: > 100 µM (inactive)
- GI50 [4]: > 100 µM (inactive)
- GI50 [7]: > 100 µM (inactive)
- GI50 [8]: > 100 µM (inactive)
- GI50 [9]: > 100 µM (inactive)
- GI50 [10]: > 100 µM (inactive)
- GI50 [11]: > 100 µM (inactive)
- GI50 [59]: > 100 µM (inactive)
- GI50 [12]: > 100 µM (inactive)
- GI50 [13]: > 100 µM
- GI50 [14]: > 100 µM (inactive)
- GI50 [15]: > 100 µM (inactive)
- GI50 [16]: > 100 µM (inactive)
- GI50 [17]: 23.6 µM (inactive)
- GI50 [18]: > 100 µM (inactive)
- GI50 [19]: > 100 µM (inactive)
- GI50 [20]: > 100 µM (inactive)
- GI50 [21]: > 100 µM (inactive)
- GI50 [22]: > 100 µM (inactive)
- GI50 [23]: > 100 µM (inactive)
- GI50 [24]: 90.4 µM (inactive)
- GI50 [25]: > 100 µM (inactive)
- GI50 [26]: > 100 µM (inactive)
- GI50 [28]: > 100 µM (inactive)
- GI50 [30]: 44.6 µM (inactive)
- GI50 [31]: > 100 µM (inactive)
- GI50 [32]: > 100 µM (inactive)
- GI50 [33]: > 100 µM (inactive)
- GI50 [34]: > 100 µM (inactive)
- GI50 [35]: > 100 µM (inactive)
- GI50 [36]: > 100 µM (inactive)
- GI50 [37]: > 100 µM (inactive)
- GI50 [38]: > 100 µM (inactive)
- GI50 [39]: > 100 µM (inactive)
- GI50 [40]: > 100 µM (inactive)
- GI50 [41]: > 100 µM (inactive)
- GI50 [42]: > 100 µM (inactive)
- GI50 [43]: > 100 µM (inactive)
- GI50 [44]: > 100 µM (inactive)
- GI50 [45]: > 100 µM (inactive)
- GI50 [46]: > 100 µM (inactive)
- GI50 [47]: > 100 µM (inactive)
- GI50 [48]: 48.4 µM (inactive)
- GI50 [49]: > 100 µM (inactive)
- GI50 [50]: > 100 µM (inactive)
- GI50 [51]: > 100 µM (inactive)
- GI50 [52]: > 100 µM (inactive)
- GI50 [53]: 41.8 µM (inactive)
- GI50 [54]: > 100 µM (inactive)
- GI50 [55]: > 100 µM (inactive)
- GI50 [56]: > 100 µM (inactive)
- GI50 [57]: > 100 µM (inactive)
- GI50 [58]: 18.7 µM (inactive)

Compound: CCOc1ccc(/N=C/c2c3ccccc3nc3ccccc23)cc1
- GI50 [1]: 39.7 µM (inactive)
- GI50 [2]: 68.1 µM (inactive)
- GI50 [3]: 74.6 µM (inactive)
- GI50 [4]: 62.1 µM (inactive)
- GI50 [5]: 58.2 µM (inactive)
- GI50 [6]: 3.59 µM (inactive)
- GI50 [7]: > 100 µM (inactive)
- GI50 [8]: 24.7 µM (inactive)
- GI50 [9]: 25.1 µM (inactive)
- GI50 [10]: 32.4 µM (inactive)
- GI50 [11]: 95.3 µM (inactive)
- GI50 [59]: > 100 µM (inactive)
- GI50 [13]: 25.1 µM
- GI50 [14]: 11 µM (inactive)
- GI50 [15]: > 100 µM (inactive)
- GI50 [16]: 39.4 µM (inactive)
- GI50 [17]: > 100 µM (inactive)
- GI50 [18]: 21.8 µM (inactive)
- GI50 [19]: > 100 µM (inactive)
- GI50 [20]: 4.48 µM (inactive)
- GI50 [21]: 40.2 µM (inactive)
- GI50 [22]: 4.33 µM (inactive)
- GI50 [23]: 40.1 µM (inactive)
- GI50 [24]: 24.7 µM (inactive)
- GI50 [25]: 55.2 µM (inactive)
- GI50 [26]: > 100 µM (inactive)
- GI50 [27]: 4.25 µM (inactive)
- GI50 [28]: 49.5 µM (inactive)
- GI50 [29]: > 100 µM (inactive)
- GI50 [30]: 54 µM (inactive)
- GI50 [31]: 48.9 µM (inactive)
- GI50 [32]: 49 µM (inactive)
- GI50 [33]: 31.1 µM (inactive)
- GI50 [34]: 70 µM (inactive)
- GI50 [35]: > 10 µM (inactive)
- GI50 [36]: 65.3 µM (inactive)
- GI50 [37]: 21.8 µM (inactive)
- GI50 [38]: 46.2 µM (inactive)
- GI50 [39]: > 100 µM (inactive)
- GI50 [40]: 71 µM (inactive)
- GI50 [41]: 59.6 µM (inactive)
- GI50 [42]: 65.6 µM (inactive)
- GI50 [43]: > 100 µM (inactive)
- GI50 [44]: 31.3 µM (inactive)
- GI50 [45]: 38.9 µM (inactive)
- GI50 [46]: > 100 µM (inactive)
- GI50 [47]: > 100 µM (inactive)
- GI50 [48]: 73.8 µM (inactive)
- GI50 [49]: 44.8 µM (inactive)
- GI50 [50]: > 100 µM (inactive)
- GI50 [52]: 31.3 µM (inactive)
- GI50 [53]: 83 µM (inactive)
- GI50 [54]: > 100 µM (inactive)
- GI50 [55]: 55.1 µM (inactive)
- GI50 [56]: 95.3 µM (inactive)
- GI50 [57]: 98.6 µM (inactive)
- GI50 [58]: 65.6 µM (inactive)
